System: subject with AF/AFL
Test: Initiation of IV sotalol followed by first oral dose and same-day discharge (case Examples 1-12)
Assay type: in vivo, human
Procedure: • 1. After admission, obtain baseline parameters including QTc interval, HR, BP. • 2. […] Monitor QTc interval, HR, BP every 15 minutes during infusion. • 4. Administer first oral dose at the appropriate time based on renal function. For CrCl≥60 mL/min, oral administration time is planned 4 hours following the completion of IV infusion. For CrCl=30-59 mL/min, oral administration time is planned 6 hours following the completion of IV infusion. • 5. Obtain monitoring parameters including QTc interval, HR, BP at about 2 hours after oral administration. • 6. […] At arrival, baseline labs were obtained, and the subject was placed on continuous electrocardiogra monitoring. […] At arrival, baseline labs were obtained, and the subject was placed on continuous electrocardiography monitoring. […] At arrival, baseline labs were obtained, and the subject was placed on continuous electrocardiography monitoring. […] At arrival, baseline labs were obtained, and the subject was placed on continuous electrocardiography monitoring. […] At arrival, baseline labs were obtained, and the subject was placed on continuous electrocardiography monitoring. […] At arrival, baseline labs were obtained, and the subject was placed on continuous electrocardiography monitoring. […] At arrival, baseline labs were obtained, and the subject was placed on continuous electrocardiography monitoring. […] At arrival, baseline labs were obtained, and the subject was placed on continuous electrocardiography monitoring. […] At arrival, baseline labs were obtained, and the subject was placed on continuous electrocardiography monitoring. […] At arrival, baseline labs were obtained, and the subject was placed on continuous electrocardiography monitoring. […] At arrival, baseline labs were obtained, and the subject was placed on continuous electrocardiography monitoring. […] At arrival, baseline labs were obtained, and the subject was placed on continuous electrocardiography monitoring.

[1] = Example 1: IV 82.5 mg, DCCV, PO 80 mg 4 h after IV completion
[2] = Example 2: IV 82.5 mg, PO 80 mg 4 h after IV completion
[3] = Example 3: IV 75 mg, DCCV, PO 80 mg 5.5 h after IV completion
[4] = Example 4: IV 75 mg, DCCV, PO 80 mg 6.5 h after IV completion
[5] = Example 5: IV 75 mg, DCCV, PO 80 mg 5 h after IV completion
[6] = Example 6: IV 75 mg, DCCV, PO 80 mg 5.5 h after IV completion
[7] = Example 7: IV 60 mg, PO 120 mg 5 h after IV completion, second DCCV
[8] = Example 8: IV 82.5 mg, DCCV, PO 80 mg 4 h after IV completion
[9] = Example 9: IV 90 mg, DCCV, PO 120 mg 3.5 h after IV completion
[10] = Example 10: IV 75 mg, DCCV, PO 80 mg 6 h after IV completion
[11] = Example 11: IV 75 mg, DCCV, PO 80 mg 6 h after IV completion
[12] = Example 12: IV 75 mg, DCCV, PO 80 mg 6 h after IV completion

CC(C)NCC(O)c1ccc(NS(C)(=O)=O)cc1 (stereo not shown) [sotalol, d,1-sotalol]
within normal limits: Monitoring parameters (QTc, HR, BP) two hours after oral administration [1] | Monitoring parameters (QTc, HR, BP) two hours after oral administration [2] | Monitoring parameters including QTc two hours after oral administration [3] | Monitoring parameters including QTc two hours after oral administration [4] | Monitoring parameters including QTc two hours after oral administration [5] | Monitoring parameters including QTc two hours after oral administration [6] | Monitoring parameters (QTc, HR, BP) two hours after oral administration [7] | Monitoring parameters (QTc, HR, BP) two hours after oral administration [8] | Monitoring parameters (QTc, HR, BP) two hours after oral administration [9] | Monitoring parameters (QTc, HR, BP) two hours after oral administration [10] | Monitoring parameters (QTc, HR, BP) two hours after oral administration [11] | Monitoring parameters (QTc, HR, BP) two hours after oral administration [12]
failed to convert: Rhythm conversion after IV sotalol infusion and first DCCV attempt (Example 7: person, persistent AF, IV 60 mg over 1 h, then first DCCV)
converting the subject from AF to NSR: Rhythm conversion after IV sotalol infusion (Example 6: person, PVCs and paroxysmal AF, CrCl 41 mL/min, IV 75 mg over 1 h, then DCCV) | Rhythm conversion after IV sotalol infusion (Example 9: person, persistent AF, IV 90 mg over 1 h, then DCCV)
converted from AF to NSR: Rhythm conversion after IV sotalol infusion (Example 1: person, persistent AF/AFL, IV 82.5 mg over 1 h, then DCCV) | Rhythm conversion after IV sotalol infusion (Example 2: person, paroxysmal AF and PVCs, IV 82.5 mg over 1 h, no DCCV) | Rhythm conversion after IV sotalol infusion (Example 3: person, persistent AF, CrCl 30 mL/min, IV 75 mg over 1 h, then DCCV) | Rhythm conversion after IV sotalol infusion (Example 4: person, persistent AF, CrCl 38 mL/min, IV 75 mg over 1 h, then DCCV) | Rhythm conversion after IV sotalol infusion (Example 5: person, persistent AF, CrCl 37 mL/min, IV 75 mg over 1 h, then DCCV) | Rhythm conversion after first oral dose and second DCCV (Example 7: IV 60 mg, PO 120 mg 5 h after IV completion, then second DCCV) | Rhythm conversion after IV sotalol infusion (Example 8: person, persistent AF, IV 82.5 mg over 1 h, then DCCV) | Rhythm conversion after IV sotalol infusion (Example 10: person, persistent AF, CrCl 56 mL/min, IV 75 mg over 1 h, then DCCV) | Rhythm conversion after IV sotalol infusion (Example 11: person, persistent AF, CrCl 50 mL/min, IV 75 mg over 1 h, then DCCV) | Rhythm conversion after IV sotalol infusion (Example 12: person, PVCs and persistent AF, CrCl 53 mL/min, IV 75 mg over 1 h, then DCCV)
remained in NSR: Rhythm two hours after oral administration [1] | Rhythm two hours after oral administration [2] | Rhythm two hours after oral administration [3] | Rhythm two hours after oral administration [4] | Rhythm two hours after oral administration [5] | Rhythm two hours after oral administration [6] | Rhythm two hours after oral administration [7] | Rhythm two hours after oral administration [8] | Rhythm two hours after oral administration [9] | Rhythm two hours after oral administration [10] | Rhythm two hours after oral administration [11] | Rhythm two hours after oral administration [12]

— patent publication US12685716B1 (priority 2022, dated 2026)
